Key:
PVA-MV@CB[8] = experiment: ITC second guest binding to PVA-MV in the presence of CB[8]; conditions: 25° C., 10 mM PBS buffer pH 7.0
Experimental: ITC titration experiments were carried out on a VP-ITC from Microcal Inc. at 25° C. in 10 mM sodium phosphate buffer (pH=7). In a typical experiment, the host was in the sample cell at a concentration of 0.1 mM, and the guest was in the syringe at a 10 fold higher concentration. In the case of functional polymers, the concentration used is determined from the concentration of functional monomer units in solution and not the concentration of polymer. A titration consisted of 29 consecutive injections of 2-10 mL with at least 300 s intervals between injections. The first data point was removed from the data set prior to curve fitting. Heats of dilution were checked by titration well beyond saturation or by titration of the guest into a buffer solution and subtracted from the normalized enthalpies, but relatively small in all cases. The data were analyzed with Origin 7.0 software, using the one set of sites model.
Isothermal titration calorimetry (ITC) was used for quantitative investigation of the respective binding thermodynamics for the HEC-Np and PVA-MV with CB[8]

[1] = tested on: L929 mouse broblast cells; conditions: 1 ppm; cited from earlier work

Ka (PVA-MV@CB[8]) | Compound | cytotoxic response [1]
(1.10 ± 0.03) × 10^5 M^−1 | Oc1ccc2ccccc2c1 [NpOH, 2-naphthol] | 
 | dibutyltin dilaurate [TDL] | does not elicit a cytotoxic response
